Measured values published in PubChem BioAssay (NCI).
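Each compound was tested at five concentrations against cells in 96-well plates for 48 hours. TGI: total growth inhibition.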

Experiments:
Assay in all cases: DTP human tumour cell line panel, 48 h
SN12C renal = test system: SN12C renal
M19-MEL melanoma = test system: M19-MEL melanoma
RXF 393 renal = test system: RXF 393 renal
NCI-H460 lung = test system: NCI-H460 lung
LXFL 529 NSCLC = test system: LXFL 529 NSCLC
SK-MEL-5 melanoma = test system: SK-MEL-5 melanoma
LOX IMVI melanoma = test system: LOX IMVI melanoma
UACC-257 melanoma = test system: UACC-257 melanoma
MALME-3M melanoma = test system: MALME-3M melanoma
CAKI-1 renal = test system: CAKI-1 renal
MOLT-4 leukemia = test system: MOLT-4 leukemia
HCC-2998 colon = test system: HCC-2998 colon
K-562 leukemia = test system: K-562 leukemia
UO-31 renal = test system: UO-31 renal
SK-MEL-28 melanoma = test system: SK-MEL-28 melanoma
KM12 colon = test system: KM12 colon
HCT-15 colon = test system: HCT-15 colon
HCT-116 colon = test system: HCT-116 colon
IGROV1 ovarian = test system: IGROV1 ovarian
SW-620 colon = test system: SW-620 colon
DMS 273 small cell lung = test system: DMS 273 small cell lung
SK-MEL-2 melanoma = test system: SK-MEL-2 melanoma
NCI-H23 lung = test system: NCI-H23 lung
DMS 114 small cell lung = test system: DMS 114 small cell lung
SNB-19 CNS = test system: SNB-19 CNS
HT29 colon = test system: HT29 colon
U251 CNS = test system: U251 CNS
SF-268 CNS = test system: SF-268 CNS
KM20L2 colon = test system: KM20L2 colon
SK-OV-3 ovarian = test system: SK-OV-3 ovarian
OVCAR-4 ovarian = test system: OVCAR-4 ovarian
A549 NSCLC = test system: A549 NSCLC
SF-295 CNS = test system: SF-295 CNS
OVCAR-5 ovarian = test system: OVCAR-5 ovarian
COLO 205 colon = test system: COLO 205 colon
TK-10 renal = test system: TK-10 renal
EKVX NSCLC = test system: EKVX NSCLC
ACHN renal = test system: ACHN renal
RXF-631 renal = test system: RXF-631 renal
CCRF-CEM leukemia = test system: CCRF-CEM leukemia
SF-539 CNS = test system: SF-539 CNS
UACC-62 melanoma = test system: UACC-62 melanoma
HOP-62 NSCLC = test system: HOP-62 NSCLC
M14 melanoma = test system: M14 melanoma
HL-60(TB) leukemia = test system: HL-60(TB) leukemia
DLD-1 colon = test system: DLD-1 colon
A498 renal = test system: A498 renal
786-0 renal = test system: 786-0 renal
SNB-78 CNS = test system: SNB-78 CNS
T-47D breast = test system: T-47D breast
HOP-18 NSCLC = test system: HOP-18 NSCLC
NCI-H522 lung = test system: NCI-H522 lung
BT-549 breast = test system: BT-549 breast
PC-3 prostate = test system: PC-3 prostate
OVCAR-3 ovarian = test system: OVCAR-3 ovarian
SR leukemia = test system: SR leukemia
XF 498 CNS = test system: XF 498 CNS
OVCAR-8 ovarian = test system: OVCAR-8 ovarian
HOP-92 NSCLC = test system: HOP-92 NSCLC
DU-145 prostate = test system: DU-145 prostate
MDA-MB-231 breast = test system: MDA-MB-231 breast
MCF7 breast = test system: MCF7 breast
HS 578T breast = test system: HS 578T breast
RPMI-8226 leukemia = test system: RPMI-8226 leukemia
MDA-MB-435 = test system: MDA-MB-435
NCI/ADR-RES ovarian = test system: NCI/ADR-RES ovarian
MDA-N = test system: MDA-N
NCI-H226 lung = test system: NCI-H226 lung
SNB-75 CNS = test system: SNB-75 CNS

## N#CCC(=O)N1CCCOCCC1
SN12C renal
  TGI: > 100 µM
M19-MEL melanoma
  TGI: > 100 µM
RXF 393 renal
  TGI: > 100 µM
NCI-H460 lung
  TGI: > 100 µM
LXFL 529 NSCLC
  TGI: > 100 µM
SK-MEL-5 melanoma
  TGI: > 100 µM
LOX IMVI melanoma
  TGI: > 100 µM
UACC-257 melanoma
  TGI: > 100 µM
MALME-3M melanoma
  TGI: > 100 µM
CAKI-1 renal
  TGI: > 100 µM
MOLT-4 leukemia
  TGI: 7.36 µM
HCC-2998 colon
  TGI: > 100 µM
K-562 leukemia
  TGI: > 100 µM
UO-31 renal
  TGI: > 100 µM
SK-MEL-28 melanoma
  TGI: > 100 µM
KM12 colon
  TGI: > 100 µM
HCT-15 colon
  TGI: 37.7 µM
HCT-116 colon
  TGI: > 100 µM
IGROV1 ovarian
  TGI: > 100 µM
SW-620 colon
  TGI: 24.3 µM
DMS 273 small cell lung
  TGI: > 100 µM
SK-MEL-2 melanoma
  TGI: > 100 µM
NCI-H23 lung
  TGI: > 100 µM
DMS 114 small cell lung
  TGI: > 100 µM
SNB-19 CNS
  TGI: > 100 µM
HT29 colon
  TGI: > 100 µM
U251 CNS
  TGI: > 100 µM
SF-268 CNS
  TGI: > 100 µM
KM20L2 colon
  TGI: > 100 µM
SK-OV-3 ovarian
  TGI: > 100 µM
OVCAR-4 ovarian
  TGI: > 100 µM
A549 NSCLC
  TGI: > 100 µM
SF-295 CNS
  TGI: > 100 µM
OVCAR-5 ovarian
  TGI: > 100 µM
COLO 205 colon
  TGI: 42.2 µM
TK-10 renal
  TGI: > 100 µM
EKVX NSCLC
  TGI: > 100 µM
ACHN renal
  TGI: > 100 µM
RXF-631 renal
  TGI: > 100 µM
CCRF-CEM leukemia
  TGI: > 100 µM
SF-539 CNS
  TGI: > 100 µM
UACC-62 melanoma
  TGI: > 100 µM
HOP-62 NSCLC
  TGI: > 100 µM
M14 melanoma
  TGI: > 100 µM
HL-60(TB) leukemia
  TGI: > 100 µM
DLD-1 colon
  TGI: > 100 µM
A498 renal
  TGI: > 100 µM
786-0 renal
  TGI: > 100 µM
SNB-78 CNS
  TGI: > 100 µM

## O=C(CSc1ncnc2nc[nH]c12)c1ccccc1
SN12C renal
  TGI: > 100 µM
M19-MEL melanoma
  TGI: > 100 µM
RXF 393 renal
  TGI: > 100 µM
NCI-H460 lung
  TGI: > 100 µM
LXFL 529 NSCLC
  TGI: > 100 µM
T-47D breast
  TGI: > 100 µM
HOP-18 NSCLC
  TGI: > 100 µM
SK-MEL-5 melanoma
  TGI: > 100 µM
LOX IMVI melanoma
  TGI: > 100 µM
UACC-257 melanoma
  TGI: > 100 µM
MALME-3M melanoma
  TGI: > 100 µM
CAKI-1 renal
  TGI: > 100 µM
MOLT-4 leukemia
  TGI: > 100 µM
NCI-H522 lung
  TGI: > 100 µM
K-562 leukemia
  TGI: > 100 µM
BT-549 breast
  TGI: > 100 µM
UO-31 renal
  TGI: > 100 µM
SK-MEL-28 melanoma
  TGI: > 100 µM
KM12 colon
  TGI: > 57.1 µM
HCT-15 colon
  TGI: > 100 µM
HCT-116 colon
  TGI: > 100 µM
IGROV1 ovarian
  TGI: > 100 µM
PC-3 prostate
  TGI: > 100 µM
OVCAR-3 ovarian
  TGI: > 100 µM
SW-620 colon
  TGI: > 100 µM
DMS 273 small cell lung
  TGI: > 100 µM
SR leukemia
  TGI: > 100 µM
SK-MEL-2 melanoma
  TGI: > 57.8 µM
NCI-H23 lung
  TGI: > 100 µM
DMS 114 small cell lung
  TGI: > 100 µM
SNB-19 CNS
  TGI: > 100 µM
HT29 colon
  TGI: > 100 µM
XF 498 CNS
  TGI: > 100 µM
OVCAR-8 ovarian
  TGI: > 100 µM
U251 CNS
  TGI: > 100 µM
SF-268 CNS
  TGI: > 100 µM
HOP-92 NSCLC
  TGI: > 100 µM
KM20L2 colon
  TGI: > 100 µM
SK-OV-3 ovarian
  TGI: > 100 µM
OVCAR-4 ovarian
  TGI: > 100 µM
A549 NSCLC
  TGI: > 100 µM
SF-295 CNS
  TGI: > 100 µM
OVCAR-5 ovarian
  TGI: > 100 µM
DU-145 prostate
  TGI: > 100 µM
MDA-MB-231 breast
  TGI: > 100 µM
COLO 205 colon
  TGI: > 100 µM
TK-10 renal
  TGI: > 100 µM
EKVX NSCLC
  TGI: > 100 µM
MCF7 breast
  TGI: > 100 µM
HS 578T breast
  TGI: > 100 µM
ACHN renal
  TGI: > 100 µM
RPMI-8226 leukemia
  TGI: > 100 µM
CCRF-CEM leukemia
  TGI: > 100 µM
MDA-MB-435
  TGI: > 100 µM
SF-539 CNS
  TGI: > 100 µM
UACC-62 melanoma
  TGI: > 100 µM
NCI/ADR-RES ovarian
  TGI: > 100 µM
HOP-62 NSCLC
  TGI: > 100 µM
MDA-N
  TGI: > 100 µM
M14 melanoma
  TGI: > 100 µM
HL-60(TB) leukemia
  TGI: > 100 µM
DLD-1 colon
  TGI: > 100 µM
NCI-H226 lung
  TGI: > 100 µM
A498 renal
  TGI: > 100 µM
786-0 renal
  TGI: > 100 µM
SNB-78 CNS
  TGI: > 100 µM

## CC12CCCCC1C(=O)C2(Cl)Cl (centres undefined)
SN12C renal
  TGI: 12.3 µM
RXF 393 renal
  TGI: 14.3 µM
NCI-H460 lung
  TGI: 6.37 µM
LXFL 529 NSCLC
  TGI: 6 µM
SNB-75 CNS
  TGI: 18.3 µM
SK-MEL-5 melanoma
  TGI: 3.82 µM
LOX IMVI melanoma
  TGI: 6.1 µM
UACC-257 melanoma
  TGI: 5.63 µM
MALME-3M melanoma
  TGI: 4.19 µM
CAKI-1 renal
  TGI: 10.1 µM
MOLT-4 leukemia
  TGI: 5.44 µM
NCI-H522 lung
  TGI: 4.61 µM
HCC-2998 colon
  TGI: 4.22 µM
K-562 leukemia
  TGI: 4.37 µM
UO-31 renal
  TGI: 5.23 µM
SK-MEL-28 melanoma
  TGI: 4.18 µM
KM12 colon
  TGI: 4.97 µM
HCT-15 colon
  TGI: 11.3 µM
HCT-116 colon
  TGI: 3.51 µM
IGROV1 ovarian
  TGI: 9.95 µM
OVCAR-3 ovarian
  TGI: 3.58 µM
SW-620 colon
  TGI: 4.47 µM
DMS 273 small cell lung
  TGI: 5.4 µM
SK-MEL-2 melanoma
  TGI: 4.41 µM
NCI-H23 lung
  TGI: 8.59 µM
HT29 colon
  TGI: 3.06 µM
XF 498 CNS
  TGI: 4.19 µM
OVCAR-8 ovarian
  TGI: 5.16 µM
U251 CNS
  TGI: 5.56 µM
SF-268 CNS
  TGI: 14.6 µM
OVCAR-4 ovarian
  TGI: 12.5 µM
A549 NSCLC
  TGI: 11.2 µM
SF-295 CNS
  TGI: 3.38 µM
OVCAR-5 ovarian
  TGI: 8.96 µM
TK-10 renal
  TGI: 11.3 µM
EKVX NSCLC
  TGI: 11 µM
ACHN renal
  TGI: 5.91 µM
RPMI-8226 leukemia
  TGI: 3.79 µM
RXF-631 renal
  TGI: 5 µM
CCRF-CEM leukemia
  TGI: 5.45 µM
SF-539 CNS
  TGI: 5.18 µM
UACC-62 melanoma
  TGI: 6.09 µM
HOP-62 NSCLC
  TGI: 4.92 µM
M14 melanoma
  TGI: 5.32 µM
HL-60(TB) leukemia
  TGI: 3.88 µM
DLD-1 colon
  TGI: 6.22 µM
A498 renal
  TGI: 12.7 µM
786-0 renal
  TGI: 4.73 µM
SNB-78 CNS
  TGI: 17.9 µM
